For two molecules, IC50 results are on record in PubChem BioAssay AID651570 (Sanford-Burnham Center for Chemical Genomics, 2012).

The experiment concerns Wnt-LIGHT cells, Wnt3a-conditioned, luciferase reporter luminescence. Put plainly: Wnt3a-driven reporter signaling inhibition, dose response, selectivity assay for Gli-SUFU antagonist project, Wnt-LIGHT cells, luminescence (AID 651570).

Each structure is given as a SMILES string. Calls of active or inactive are those of the source.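 Rule for the calls: active = compounds that block the Wnt3a luciferase reporter with IC50 at or below 20 µM, flagged as nonspecific; inactive = the rest.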

Turning to `O=C(Nc1ccccc1)C1=C[C@H](C2CCCCC2)C[C@H](OCCCCO)O1`, the IC50 – broadly, the concentration needed to halve the response being measured – is > 50 µM (inactive). Next, `O=C(C[C@H]1C/C=C\C[C@H](NC(=O)OCC2c3ccccc3-c3ccccc32)C(=O)OC[C@@H]2CCCN2C1=O)N[C@H](CO)Cc1ccccc1`: > 50 µM (inactive).
